{"source": "ChEMBL document CHEMBL1157160", "about": "“Antioxidant and cytotoxic activities of canadine: biological effects and structural aspects” (Bioorg Med Chem, 2008)", "key": {"Hepatocyte [1]": {"tested_on": "Hepatocyte", "experiment": "Cytotoxicity against Sprague-Dawley rat primary hepatocytes after 24 hrs by MTT assay", "assay_type": "cell-based"}, "HepG2 [2]": {"tested_on": "HepG2", "experiment": "Cytotoxicity against human HepG2 cells after 24 hrs by MTT assay", "assay_type": "functional, cell-based"}, "HeLa [3]": {"tested_on": "HeLa", "experiment": "Cytotoxicity against human HeLa cells after 24 hrs by MTT assay", "assay_type": "functional, cell-based"}, "Hepatocyte [4]": {"tested_on": "Hepatocyte", "experiment": "Cytotoxicity against rat primary hepatocytes at 300 ug/ml after 24 hrs by MTT assay", "assay_type": "cell-based"}, "HepG2 [5]": {"tested_on": "HepG2", "experiment": "Cytotoxicity against human HepG2 cells at 300 ug/ml after 24 hrs by MTT assay", "assay_type": "functional, cell-based"}, "HeLa [6]": {"tested_on": "HeLa", "experiment": "Cytotoxicity against human HeLa cells at 300 ug/ml after 24 hrs by MTT assay", "assay_type": "functional, cell-based"}, "Hepatocyte [7]": {"tested_on": "Hepatocyte", "experiment": "Antioxidant effect in Sprague-Dawley rat primary hepatocytes assessed as decrease in tert-butyl hydroperoxide-induced malondialdehyde accumulation administered 50 ug/ml for 7 hrs followed by combined exposure of tert-butyl hydroperoxide and drug for 12 hrs", "assay_type": "functional", "design": "scale not given: the % may be the effect or the level left"}, "Hepatocyte [8]": {"tested_on": "Hepatocyte", "experiment": "Antioxidant effect in Sprague-Dawley rat primary hepatocytes assessed as decrease in tert-butyl hydroperoxide-induced malondialdehyde accumulation administered 100 ug/ml for 7 hrs followed by combined exposure of tert-butyl hydroperoxide and drug for 12 hrs", "assay_type": "functional", "design": "scale not given: the % may be the effect or the level left"}, "Hepatocyte [9]": {"tested_on": "Hepatocyte", "experiment": "Antioxidant effect in Sprague-Dawley rat primary hepatocytes assessed as prevention of tert-butyl hydroperoxide-induced reduction in glutathione content administered 50 ug/ml for 7 hrs followed by combined exposure of tert-butyl hydroperoxide and drug for 12 hrs", "assay_type": "functional", "design": "scale not given: the % may be the effect or the level left"}, "Hepatocyte [10]": {"tested_on": "Hepatocyte", "experiment": "Antioxidant effect in Sprague-Dawley rat primary hepatocytes assessed as prevention of tert-butyl hydroperoxide-induced reduction in glutathione content administered 100 ug/ml for 7 hrs followed by combined exposure of tert-butyl hydroperoxide and drug for 12 hrs", "assay_type": "functional", "design": "scale not given: the % may be the effect or the level left"}, "[11]": {"details": "Homo sapiens, HepG2, 24 h, read-out: IC50"}, "[12]": {"details": "Homo sapiens, HeLa, 24 h, read-out: IC50"}}, "data": [{"smiles": "COc1cc2c3cc1Oc1c(O)c(OC)cc4c1[C@H](Cc1ccc(OC)c(c1)-c1cc(ccc1O)C[C@H]3N(C)CC2)N(C)CC4", "note": "[ANTIOQUINE]", "values": [{"measurement": "IC50", "setting": "Hepatocyte [1]", "result": 4.06, "unit": "µg/mL"}, {"measurement": "IC50", "setting": "HepG2 [2]; [11]", "result": 460, "unit": "µg/mL"}, {"measurement": "IC50", "setting": "HeLa [3]; [12]", "result": 548, "unit": "µg/mL"}]}, {"smiles": "COc1ccc2c(c1OC)CN1CCc3cc4c(cc3[C@@H]1C2)OCO4", "note": "[CANADINE]", "values": [{"measurement": "Activity", "setting": "Hepatocyte [4]", "result": "Non-toxic"}, {"measurement": "Activity", "setting": "HepG2 [5]", "result": "Not toxic"}, {"measurement": "Activity", "setting": "HeLa [6]", "result": "Not toxic"}, {"measurement": "Activity", "setting": "Hepatocyte [7]", "result": ">80", "unit": "%"}, {"measurement": "Activity", "setting": "Hepatocyte [8]", "result": ">80", "unit": "%"}, {"measurement": "Activity", "setting": "Hepatocyte [9]", "result": ">95", "unit": "%"}, {"measurement": "Activity", "setting": "Hepatocyte [10]", "result": ">95", "unit": "%"}]}, {"smiles": "c1ccc2c(c1)C[C@H]1NCCc3cc4c(c-2c31)OCO4", "note": "[ANONAINE]", "values": [{"measurement": "IC50", "setting": "Hepatocyte [1]", "result": 70.3, "unit": "µg/mL"}, {"measurement": "IC50", "setting": "HepG2 [2]; [11]", "result": 33.5, "unit": "µg/mL"}, {"measurement": "IC50", "setting": "HeLa [3]; [12]", "result": 24.8, "unit": "µg/mL"}]}, {"smiles": "COc1ccc2cc3[n+](cc2c1OC)CCc1cc2c(cc1-3)OCO2.[Cl-]", "note": "[BERBERINE CHLORIDE]", "values": [{"measurement": "IC50", "setting": "Hepatocyte [1]", "result": 26.5, "unit": "µg/mL"}, {"measurement": "IC50", "setting": "HepG2 [2]; hepg2", "result": 146, "unit": "µg/mL"}, {"measurement": "IC50", "setting": "HeLa [3]; hela", "result": 138, "unit": "µg/mL"}]}]}
